According to the supplement of paper PMC9013687:

Columns and labels:
[1] = tested on: Danio rerio embryo
Procedure: (§1)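 Zebrafish embryos (UFZ-OBI strain) were exposed from 2 hpf for 48 h (2 dpf) or 96 h (4 dpf) at 28 °C; spontaneous tail coiling was scored at 25 hpf. Morphological features from automated image analysis (FishInspector), heart rate and locomotor response were fitted with drc models. Quantal endpoints were dichotomised at 2.5 SD from controls and fitted with a log-logistic model; heart rate, pigmentation and STC were normalised to the replicate control mean. Betamethasone was tested as betamethasone dipropionate, diflorasone as diflorasone diacetate.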

[2] = tested on: Danio rerio embryo; conditions: exposure time: 4 dpf
Procedure: as §1

[3] = tested on: Danio rerio embryo; assay: EC50 Curvature_Increase; conditions: exposure time: 2 dpf
Procedure: as §1

[4] = tested on: Danio rerio embryo; assay: EC50 Body length_Decrease
Procedure: as §1

[5] = tested on: Danio rerio embryo; assay: EC50 Bladder size_Decrease; conditions: exposure time: 4 dpf
Procedure: as §1

[6] = tested on: Danio rerio embryo; assay: EC50 Pericard size_Increase
Procedure: as §1

[7] = tested on: Danio rerio embryo; assay: EC50 Yolk sac size_Increase; conditions: exposure time: 4 dpf
Procedure: as §1

[8] = tested on: Danio rerio embryo; assay: EC50 Eye-jaw distance_Decrease; conditions: exposure time: 4 dpf
Procedure: as §1

[9] = tested on: Danio rerio embryo; assay: EC50 Otolith-eye distance_Decrease; conditions: exposure time: 4 dpf
Procedure: as §1

[10] = tested on: Danio rerio embryo; assay: EC10 LMR dark; higher = less potent; conditions: exposure time: 4 dpf
Procedure: as §1

[11] = tested on: Danio rerio embryo; assay: EC20 LMR dark; higher = less potent; conditions: exposure time: 4 dpf
Procedure: as §1

[12] = tested on: Danio rerio embryo; assay: EC20 Any effect; higher = less potent
Procedure: as §1

[13] = tested on: Danio rerio embryo; assay: EC10 Any effect; higher = less potent
Procedure: as §1

[14] = tested on: Danio rerio embryo; assay: EC20 Eye size_Decrease; higher = less potent
Procedure: as §1

[15] = tested on: Danio rerio embryo; assay: EC10 Curvature_Increase; higher = less potent; conditions: exposure time: 2 dpf
Procedure: as §1

[16] = tested on: Danio rerio embryo; assay: EC20 Curvature_Increase; higher = less potent; conditions: exposure time: 2 dpf
Procedure: as §1

[17] = tested on: Danio rerio embryo; assay: EC10 Head size_Decrease; higher = less potent; conditions: exposure time: 2 dpf
Procedure: as §1

[18] = tested on: Danio rerio embryo; assay: EC20 Body length_Decrease; higher = less potent
Procedure: as §1

[19] = tested on: Danio rerio embryo; assay: EC10 Body length_Decrease; higher = less potent
Procedure: as §1

[20] = tested on: Danio rerio embryo; assay: EC10 Bladder size_Decrease; higher = less potent; conditions: exposure time: 4 dpf
Procedure: as §1

[21] = tested on: Danio rerio embryo; assay: EC20 Bladder size_Decrease; higher = less potent; conditions: exposure time: 4 dpf
Procedure: as §1

[22] = tested on: Danio rerio embryo; assay: EC20 Yolk sac size_Increase; higher = less potent; conditions: exposure time: 4 dpf
Procedure: as §1

[23] = tested on: Danio rerio embryo; assay: EC20 Pericard size_Increase; higher = less potent
Procedure: as §1

[24] = tested on: Danio rerio embryo; assay: EC10 Yolk sac size_Increase; higher = less potent; conditions: exposure time: 4 dpf
Procedure: as §1

[25] = tested on: Danio rerio embryo; assay: EC10 Pericard size_Increase; higher = less potent
Procedure: as §1

[26] = tested on: Danio rerio embryo; assay: EC20 Eye-jaw distance_Decrease; higher = less potent; conditions: exposure time: 4 dpf
Procedure: as §1

[27] = tested on: Danio rerio embryo; assay: EC10 Eye-jaw distance_Decrease; higher = less potent; conditions: exposure time: 4 dpf
Procedure: as §1

[28] = tested on: Danio rerio embryo; assay: EC20 Otolith-eye distance_Decrease; higher = less potent; conditions: exposure time: 4 dpf
Procedure: as §1

[29] = tested on: Danio rerio embryo; assay: EC10 Otolith-eye distance_Decrease; higher = less potent; conditions: exposure time: 4 dpf
Procedure: as §1

[30] = tested on: Danio rerio embryo; assay: spontaneous tail coiling frequency (coils/min/embryo); higher = more spontaneous movement; conditions: 25 hpf
Procedure: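 Spontaneous tail coilings of zebrafish embryos exposed from 2 hpf were recorded at 24-25 hpf in 1-min videos and detected by a KNIME workflow from grey-value variance. Betamethasone was tested as the dipropionate, diflorasone as the diacetate.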

CCCCOC(=O)[C@@H](C)Oc1ccc(Oc2ccc(C(F)(F)F)cn2)cc1 [fluazifop-p-butyl]
Conditions	EC10 Any effect [nM]	EC10 Body length Decrease [nM]	EC10 Pericard size Increase [nM]	EC20 Any effect [nM]	EC20 Body length Decrease [nM]	EC20 Eye size Decrease [nM]	EC20 Pericard size Increase [nM]	EC50 Any effect [nM]	EC50 Body length Decrease [nM]	EC50 Otolith [nM]	EC50 Pericard size Increase [nM]	spontaneous tail coiling frequency
[1], exposure time: 2 dpf	–	–	–	–	–	–	–	3100	–	9450	–	–
[1], exposure time: 4 dpf	–	–	–	–	–	–	–	1540	–	–	–	–
[4], exposure time: 2 dpf	–	–	–	–	–	–	–	–	3700	–	–	–
[4], exposure time: 4 dpf	–	–	–	–	–	–	–	–	2670	–	–	–
[6], exposure time: 2 dpf	–	–	–	–	–	–	–	–	–	–	6560	–
[6], exposure time: 4 dpf	–	–	–	–	–	–	–	–	–	–	2110	–
[12], exposure time: 2 dpf	–	–	–	942	–	–	–	–	–	–	–	–
[12], exposure time: 4 dpf	–	–	–	624	–	–	–	–	–	–	–	–
[13], exposure time: 2 dpf	469	–	–	–	–	–	–	–	–	–	–	–
[13], exposure time: 4 dpf	368	–	–	–	–	–	–	–	–	–	–	–
[14], exposure time: 2 dpf	–	–	–	–	–	1690	–	–	–	–	–	–
[14], exposure time: 4 dpf	–	–	–	–	–	1070	–	–	–	–	–	–
[18], exposure time: 2 dpf	–	–	–	–	1710	–	–	–	–	–	–	–
[18], exposure time: 4 dpf	–	–	–	–	1150	–	–	–	–	–	–	–
[19], exposure time: 2 dpf	–	1090	–	–	–	–	–	–	–	–	–	–
[19], exposure time: 4 dpf	–	702	–	–	–	–	–	–	–	–	–	–
[23], exposure time: 2 dpf	–	–	–	–	–	–	2940	–	–	–	–	–
[23], exposure time: 4 dpf	–	–	–	–	–	–	834	–	–	–	–	–
[25], exposure time: 2 dpf	–	–	1840	–	–	–	–	–	–	–	–	–
[25], exposure time: 4 dpf	–	–	485	–	–	–	–	–	–	–	–	–
[30], 1.29 µM	–	–	–	–	–	–	–	–	–	–	–	1.94
[30], 1.93 µM	–	–	–	–	–	–	–	–	–	–	–	1.98
[30], 2.9 µM	–	–	–	–	–	–	–	–	–	–	–	2.62
[30], 4.35 µM	–	–	–	–	–	–	–	–	–	–	–	1.95
[30], 5.2 µM	–	–	–	–	–	–	–	–	–	–	–	0.71
[30], 6.52 µM	–	–	–	–	–	–	–	–	–	–	–	1.41
[30], 9.78 µM	–	–	–	–	–	–	–	–	–	–	–	1.62

Conditions	EC10 Bladder size Decrease [nM]	EC10 Curvature Increase [nM]	EC10 Eye-jaw distance Decrease [nM]	EC10 Head size Decrease [nM]	EC10 LMR dark [nM]	EC10 Otolith-eye distance Decrease [nM]	EC10 Yolk sac size Increase [nM]	EC20 Bladder size Decrease [nM]	EC20 Curvature Increase [nM]	EC20 Eye-jaw distance Decrease [nM]	EC20 LMR dark [nM]	EC20 Otolith-eye distance Decrease [nM]	EC20 Yolk sac size Increase [nM]	EC50 Bladder size Decrease [nM]	EC50 Curvature Increase [nM]	EC50 Eye-jaw distance Decrease [nM]	EC50 LMR dark [nM]	EC50 Otolith-eye distance Decrease [nM]	EC50 Yolk sac size Increase [nM]
[2]	–	–	–	–	–	–	–	–	–	–	–	–	–	–	–	–	2380	–	–
[3]	–	–	–	–	–	–	–	–	–	–	–	–	–	–	6370	–	–	–	–
[5]	–	–	–	–	–	–	–	–	–	–	–	–	–	1510	–	–	–	–	–
[7]	–	–	–	–	–	–	–	–	–	–	–	–	–	–	–	–	–	–	3420
[8]	–	–	–	–	–	–	–	–	–	–	–	–	–	–	–	2360	–	–	–
[9]	–	–	–	–	–	–	–	–	–	–	–	–	–	–	–	–	–	2000	–
[10]	–	–	–	–	362	–	–	–	–	–	–	–	–	–	–	–	–	–	–
[11]	–	–	–	–	–	–	–	–	–	–	767	–	–	–	–	–	–	–	–
[15]	–	2280	–	–	–	–	–	–	–	–	–	–	–	–	–	–	–	–	–
[16]	–	–	–	–	–	–	–	–	3340	–	–	–	–	–	–	–	–	–	–
[17]	–	–	–	3190	–	–	–	–	–	–	–	–	–	–	–	–	–	–	–
[20]	780	–	–	–	–	–	–	–	–	–	–	–	–	–	–	–	–	–	–
[21]	–	–	–	–	–	–	–	994	–	–	–	–	–	–	–	–	–	–	–
[22]	–	–	–	–	–	–	–	–	–	–	–	–	2620	–	–	–	–	–	–
[24]	–	–	–	–	–	–	2240	–	–	–	–	–	–	–	–	–	–	–	–
[26]	–	–	–	–	–	–	–	–	–	1040	–	–	–	–	–	–	–	–	–
[27]	–	–	645	–	–	–	–	–	–	–	–	–	–	–	–	–	–	–	–
[28]	–	–	–	–	–	–	–	–	–	–	–	964	–	–	–	–	–	–	–
[29]	–	–	–	–	–	629	–	–	–	–	–	–	–	–	–	–	–	–	–
